Source: patent US8134015B2, “Compound inhibiting in vivo phosphorous transport and medicine containing the same” (Kyowa Hakko Kirin Co., Ltd., priority 2003, dated 2012)

Molecular target: T1, rat NaPi-2b (Rattus norvegicus, UniProt Q9JJ09)
T1 construct: expressed in transfected cells; host or cells: Xenopus oocytes injected with cRNA
T1 sequence (Q9JJ09 1-695): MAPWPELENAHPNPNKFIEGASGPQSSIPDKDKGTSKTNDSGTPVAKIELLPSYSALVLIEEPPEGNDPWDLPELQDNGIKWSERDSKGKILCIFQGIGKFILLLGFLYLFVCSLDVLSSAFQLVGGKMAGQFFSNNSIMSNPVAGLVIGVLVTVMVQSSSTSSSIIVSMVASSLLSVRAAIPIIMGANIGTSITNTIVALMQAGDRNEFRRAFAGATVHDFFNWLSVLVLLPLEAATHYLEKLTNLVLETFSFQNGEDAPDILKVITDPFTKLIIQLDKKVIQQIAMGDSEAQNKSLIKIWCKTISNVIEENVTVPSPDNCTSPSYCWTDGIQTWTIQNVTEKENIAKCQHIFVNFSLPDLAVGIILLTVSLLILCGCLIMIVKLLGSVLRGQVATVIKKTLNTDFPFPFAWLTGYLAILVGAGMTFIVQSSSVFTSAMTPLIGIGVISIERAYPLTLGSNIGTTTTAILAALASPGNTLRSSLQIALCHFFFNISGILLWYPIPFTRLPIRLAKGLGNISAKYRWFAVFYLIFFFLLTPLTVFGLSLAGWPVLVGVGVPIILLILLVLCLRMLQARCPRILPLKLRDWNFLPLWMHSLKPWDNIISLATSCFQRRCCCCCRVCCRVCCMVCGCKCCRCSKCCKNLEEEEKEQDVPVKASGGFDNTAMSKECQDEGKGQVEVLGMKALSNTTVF
Assay: Sodium-dependent phosphate uptake of Xenopus oocytes which expressed NaPi-2b (32P)
Assay type: cell-based
Conditions: for IC50: Xenopus oocytes expressing rat NaPi-2b, 32P radioactive phosphorus, read-out: IC50 (phosphate uptake inhibitory activity)
How it was run: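 Read-out is 32P phosphate uptake into Xenopus oocytes expressing rat intestinal NaPi-2b (cRNA injection, 2-day culture). Inhibition at 300 μM and 100 μM was derived from a single inhibition curve and given as percent.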

Row | SMILES | IC50 | inhibition at 300 µM (phosphate uptake, oocytes expressing rat NaPi-2b, 300 μM, determined from inhibition curve)
1 | Cc1ccc(/C=N/NC(=O)c2c(NC(=O)c3cccc(CN(CC(C)O)CC(C)O)c3)sc(C)c2C)cc1C (centres unmarked) [Compound 844, 3-{[Bis-(2-hydroxy-propyl)-amino]-methyl}-N-[3-(3,4-dimethyl-benzylidene-hydrazinocarbonyl)-4,5-dimethyl-thiophen-2-yl]-benzamide] | < 3 µM | –
2 | O=C(Nc1ccc(Br)cc1C(=O)N/N=C/c1cccc(F)c1)c1cccc(CSc2ccncc2)c1 [Compound 195, N-[4-Bromo-2-(3-fluoro-benzylidene-hydrazinocarbonyl)-phenyl]-3-(pyridin-4-ylsulfanylmethyl)-benzamide] | 0.98 µM | –
3 | Cc1ccccc1/C=N/NC(=O)c1ccccc1NC(=O)c1ccccc1 [Compound 229, N-[2-(2-Methyl-benzylidene-hydrazinocarbonyl)-phenyl]-benzamide] | 6.32 µM | –
4 | O=C(Nc1ccccc1C(=O)N/N=C/c1ccc(Cl)cc1)c1cccc(OC(F)(F)F)c1 [Compound 123] | 3.77 µM | –
5 | Cc1ccc(/C=N/NC(=O)c2cc(Cl)ccc2NC(=O)c2cccc(CN(C)CCO)c2)cc1 [Compound 397, N-[4-Chloro-2-(4-methyl-benzylidene-hydrazinocarbonyl)-phenyl]-3-{[(2-hydroxy-ethyl)-methyl-amino]-methyl}-benzamide] | 9.25 µM | –
6 | Cc1ccc(/C=N/NC(=O)c2cc(Cl)ccc2NC(=O)c2ccccn2)cc1 [Compound 362, Pyridin-2-carboxylic acid [4-chloro-2-(4-methyl-benzylidene-hydrazinocarbonyl)-phenyl]-amide] | < 1 µM | –
7 | Cc1ccc(/C=N/NC(=O)c2c(NC(=O)c3cccc(CN(CC(C)O)CC(C)O)c3)sc3ccccc23)cc1C (centres unmarked) [Compound 792, 3-{[Bis-(2-hydroxy-propyl)-amino]-methyl}-N-[3-(3,4-dimethyl-benzylidene-hydrazinocarbonyl)-benzo[b]thiophen-2-yl]-benzamide] | 1.26 µM | –
8 | CCN(CC)CCN(C)Cc1cccc(C(=O)Nc2ccc(N3CCCC3)cc2C(=O)N/N=C/c2ccc(OC)cc2)c1 [Compound 918, 3-{[(2-Diethylamino-ethyl)-methyl-amino]-methyl}-N-[2-(4-methoxy-benzylidene-hydrazinocarbonyl)-4-pyrrolidin-1-yl-phenyl]-benzamide] | 1.55 µM | –
9 | COc1ccc(C(=O)Nc2ccc(Br)cc2C(=O)N/N=C(\C)c2cccc(F)c2)cc1OC [Compound 214, N-{4-Bromo-2-[1-(3-fluoro-phenyl)-ethylidene-hydrazinocarbonyl]-phenyl}-3,4-dimethoxy-benzamide] | 3.95 µM | –
10 | O=C(Nc1ccc(Cl)cc1C(=O)N/N=C/c1cccc(F)c1)c1ccccn1 [Compound 359, Pyridin-2-carboxylic acid [4-chloro-2-(3-fluoro-benzylidene-hydrazinocarbonyl)-phenyl]-amide] | 7.1 µM | –
11 | CCN(CCO)Cc1ccc(C(=O)Nc2ccc(Cl)cc2C(=O)N/N=C/c2cccc(OC)c2)cc1 [Compound 438, N-[4-Chloro-2-(3-methoxy-benzylidene-hydrazinocarbonyl)-phenyl]-4-{[ethyl-(2-hydroxy-ethyl)-amino]-methyl}-benzamide] | 26.3 µM | –
12 | CCN(CC)CCN(C)Cc1cccc(C(=O)Nc2sccc2C(=O)N/N=C/c2ccc(F)cc2)c1 [Compound 666, 3-{[(2-Diethylamino-ethyl)-methyl-amino]-methyl}-N-[3-(4-fluoro-benzylidene-hydrazinocarbonyl)-thiophen-2-yl]-benzamide] | 31.2 µM | –
13 | CCN(CC)CCN(C)Cc1cccc(C(=O)Nc2sccc2C(=O)N/N=C/c2cccc(F)c2)c1 [Compound 667, 3-{[(2-Diethylamino-ethyl)-methyl-amino]-methyl}-N-[3-(3-fluoro-benzylidene-hydrazinocarbonyl)-thiophen-2-yl]-benzamide] | 30.5 µM | –
14 | COc1ccc(C(=O)Nc2ccccc2C(=O)N/N=C/c2ccccc2Cl)cc1OC [Compound 231, N-[2-(2-Chloro-benzylidene-hydrazinocarbonyl)-phenyl]-3,4-dimethoxy-benzamide] | – | 32.8%
15 | CCN(CC)CCN(C)Cc1cccc(C(=O)Nc2ccc(OCC3CCCCC3)cc2C(=O)N/N=C/c2ccc(OC)cc2)c1 [Compound 1050, N-[4-Cyclohexylmethoxy-2-(4-methoxy-benzylidene-hydrazinocarbonyl)-phenyl]-3-{[(2-diethylamino-ethyl)-methyl-amino]-methyl}-benzamide] | 1.42 µM | –
16 | COc1ccc(C(=O)Nc2ccccc2C(=O)N/N=C/c2ccc(OC)c(Br)c2)cc1 [Compound 100, N-[2-(3-Bromo-4-methoxy-benzylidene-hydrazinocarbonyl)-phenyl]-4-methoxy-benzamide] | 0.64 µM | –
17 | Cc1ccc(/C=N/NC(=O)c2ccsc2NC(=O)c2cccc(CSCCCO)c2)cc1 [Compound 659, 3-(3-Hydroxy-propylsulfanylmethyl)-N-[3-(4-methyl-benzylidene-hydrazinocarbonyl)-thiophen-2-yl]-benzamide] | 12.4 µM | –
18 | O=C(Nc1ccc(Br)cc1C(=O)N/N=C/c1ccc(F)cc1)c1cccnc1 [Compound 173, N-[4-Bromo-2-(4-fluoro-benzylidene-hydrazinocarbonyl)-phenyl]-nicotinamide] | 7.4 µM | –
19 | CCN(CCO)Cc1ccc(C(=O)Nc2ccc(Cl)cc2C(=O)N/N=C/c2cccc(F)c2)cc1 [Compound 432, N-[4-Chloro-2-(3-fluoro-benzylidene-hydrazinocarbonyl)-phenyl]-4-{[ethyl-(2-hydroxy-ethyl)-amino]-methyl}-benzamide] | 22.2 µM | –
20 | COc1ccc(C(=O)Nc2ccccc2C(=O)N/N=C/c2ccc(N(C)C)cc2)cc1OC [Compound 104, N-[2-(4-Dimethylamino-benzylidene-hydrazinocarbonyl)-phenyl]-3,4-dimethoxy-benzamide] | 11.3 µM | –

Other lines, results leading:

Row | IC50 | inhibition at 300 µM (phosphate uptake, oocytes expressing rat NaPi-2b, 300 μM, determined from inhibition curve) | SMILES
21 | < 3 µM | – | CCN(CC)CCNCc1cccc(C(=O)Nc2scc(C)c2C(=O)N/N=C/c2ccc(C)c(C)c2)c1 [Compound 581, 3-[(2-Diethylamino-ethylamino)-methyl]-N-[3-(3,4-dimethyl-benzylidene-hydrazinocarbonyl)-4-methyl-thiophen-2-yl]-benzamide]
22 | < 1 µM | – | O=C(Nc1ccc(Cl)cc1C(=O)N/N=C/c1ccc(Cl)c(C(F)(F)F)c1)c1ccccn1 [Compound 364, Pyridin-2-carboxylic acid [4-chloro-2-(4-chloro-3-trifluoromethyl-benzylidene-hydrazinocarbonyl)-phenyl]-amide]
23 | 2.98 µM | – | CCN(CC)CCN(Cc1cccc(C(=O)Nc2sc3c(c2C(=O)N/N=C/c2ccc(Cl)c(C(F)(F)F)c2)CCCC3)c1)C(C)=O [Compound 656, 3-{[Acetyl-(2-diethylamino-ethyl)-amino]-methyl}-N-[3-(4-chloro-3-trifluoromethyl-benzylidene-hydrazinocarbonyl)-4,5,6,7-tetrahydro-benzo[b]thiophen-2-yl]-benzamide]
24 | 1.23 µM | – | Cc1ccc(/C=N/NC(=O)c2c(NC(=O)c3cccc(CN(CC(C)O)CC(C)O)c3)sc3c2CCC3)cc1C (centres unmarked) [Compound 804, 3-{[Bis-(2-hydroxy-propyl)-amino]-methyl}-N-[3-(3,4-dimethyl-benzylidene-hydrazinocarbonyl)-5,6-dihydro-4H-cyclopenta[b]thiophen-2-yl]-benzamide]
25 | 4.09 µM | – | O=C(Nc1ccc(Br)cc1C(=O)N/N=C/c1cccc(F)c1)c1ccc(CN2CCN(CCO)CC2)cc1 [Compound 320, N-[4-Bromo-2-(3-fluoro-benzylidene-hydrazinocarbonyl)-phenyl]-4-[4-(2-hydroxy-ethyl)-piperazin-1-ylmethyl]-benzamide]
26 | 9.23 µM | – | COc1ccc(/C=N/NC(=O)c2c(C)csc2NC(=O)c2cccc(CN3CCC(CO)CC3)c2)cc1 [Compound 604, 3-(4-Hydroxymethyl-piperidin-1-ylmethyl)-N-[3-(4-methoxy-benzylidene-hydrazinocarbonyl)-4-methyl-thiophen-2-yl]-benzamide]
27 | 3.6 µM | – | Cc1ccc(/C=N/NC(=O)c2c(C)csc2NC(=O)c2cccc(CN3CCC(O)CC3)c2)cc1 [Compound 594, 3-(4-Hydroxy-piperidin-1-ylmethyl)-N-[4-methyl-3-(4-methyl-benzylidene-hydrazinocarbonyl)-thiophen-2-yl]-benzamide]
28 | 21 µM | – | O=C(Nc1ccc(Cl)cc1C(=O)N/N=C/c1cccc(O)c1)c1cccc(CN2CCC(N3CCCCC3)CC2)c1 [Compound 376, 3-[1,4′]Bipiperidinyl-1′-ylmethyl-N-[4-chloro-2-(3-hydroxy-benzylidene-hydrazinocarbonyl)-phenyl]-benzamide]
29 | 1.75 µM | – | Cc1csc(NC(=O)c2cccc(CN3CCC(N4CCCCC4)CC3)c2)c1C(=O)N/N=C/c1ccc(Cl)c(C(F)(F)F)c1 [Compound 573, 3-[1,4′]Bipiperidinyl-1′-ylmethyl-N-[3-(4-chloro-3-trifluoromethyl-benzylidene-hydrazinocarbonyl)-4-methyl-thiophen-2-yl]-benzamide]
